Measurements from PubChem BioAssay AID179 (DTP/NCI, 2004).
Several values for one entry are separate records, joined by “and”; a condition that tells them apart may be missing. Equal values may be shown once. Activity calls are given as the source filed them.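 How the source made its calls: active means compounds giving half or more protection of infected cells from virus-caused growth loss, again on retest; inactive means the rest.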 Where a SMILES comes first, the peptide text is derived from it. Bridges are numbered along the chain shown (N, C = ends). Roman numbers before positions name the chains, in order.

Test system: CEM cells HIV-1 protection, formazan growth assay
Test: NCI AIDS Antiviral Assay
Conditions: for IC50: measured here: growth of uninfected CEM cells
Procedure, shortened: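 Category rules: moderately active means at least 50% protection on retest, and confirmed active means 100% protection reproducibly. The underlying data came from a formazan growth assay in HIV-1-infected CEM cells.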

CCOC(=O)c1sc(C(=O)O)cc1-c1cccs1
EC50: 234 µM | IC50: 501 µM

CC(N)CNCC(C)N (configuration not stated)
EC50: > 200 µM | IC50: > 200 µM

CC(=O)OC1CCC23COC(CC(C)C2C)C3(Cl)C1 (configuration not stated)
EC50: > 200 µM | IC50: > 200 µM

C=CC(=O)N1C/C(=C\c2ccc([N+](=O)[O-])cc2)C(=O)/C(=C/c2ccc([N+](=O)[O-])cc2)C1
EC50: > 200 µM | IC50: 0.0631 µM

CN1N(c2ccccc2)C(=O)C2=NC=C(C(=O)c3ccccc3)C(=N)C21C (configuration not stated)
EC50: > 200 µM | IC50: > 200 µM

CCCCCCCCCCCCCCCCCCNC(=S)/N=C\C(C(=O)Nc1ccccc1C)=C(/C)O
EC50: > 200 µM | IC50: 115 µM

CC1(C)CS(=O)(=O)CC(C)(C)C(=N/N)/C1=N\N
EC50: > 200 µM | IC50: > 200 µM

O=C1c2ccccc2-c2nnc(-c3ccc([N+](=O)[O-])cc3)cc21
EC50: > 100 µM | IC50: > 100 µM

CCC(CCCN)Nc1cc(OC)cc2c(C)ccnc12 (configuration not stated)
EC50: > 200 µM | IC50: 7.41 µM

OCC1OC(n2cnc3c2NC=NCC3O)C(Cl)C1O (configuration not stated)
EC50: > 295 µM | IC50: > 295 µM

CSc1cc(-c2ccccn2)nc(-c2ccccn2)c1.CSc1cc(-c2ccccn2)nc(-c2ccccn2)c1.[Ni+2].[O-][Cl+3]([O-])([O-])[O-]
EC50: > 200 µM | IC50: > 200 µM

CCCCCCCSc1ccc(/C=C(\C#N)c2ccc(OCCN(CC)CC)cc2)cc1
EC50: > 100 µM | IC50: 1.86 µM

COc1ccc(-c2cc(=O)c3c(O)c(O)c(OC)cc3o2)cc1O
EC50: > 550 µM | IC50: 240 µM

Nc1ccc(SSc2ccc(N)cc2)cc1
EC50: > 200 µM | IC50: 25.1 µM and 29.5 µM

CN(C)N1C(=O)S/C(=C\c2ccc([N+](=O)[O-])cc2)C1=O
EC50: > 200 µM | IC50: > 200 µM

Cc1ccc(NC(=O)c2cc(S(=O)(=O)Nc3nc4ncccc4[nH]3)c(SSc3cc(Cl)c(C(=O)Nc4ccc(C)cc4)cc3S(=O)(=O)Nc3nc4ncccc4[nH]3)cc2Cl)cc1
EC50: > 200 µM | IC50: > 200 µM

CC1=C(C(=O)Nc2cc(F)c(F)cc2F)C(c2ccc([N+](=O)[O-])cc2)C(C(=O)Nc2cc(F)c(F)cc2F)=C(C)N1
EC50: > 77.6 µM | IC50: 72.4 µM

COc1ccc(CCn2ccc(C)n2)c(OC)c1
EC50: > 200 µM | IC50: > 200 µM

O=S(=O)(SS(=O)(=O)c1ccc(Cl)cc1)c1ccc(Cl)cc1
EC50: > 93.3 µM | IC50: > 93.3 µM

COc1ccc2[nH]cc(C(=O)C(=O)NC34CC5CC(CC(C5)C3)C4)c2c1
EC50: > 200 µM | IC50: 6.03 µM

COc1ccccc1-n1c(=S)n(-c2ccccc2C)c2nc3ccccc3nc1/c2=N\Nc1ccccn1
EC50: > 200 µM | IC50: > 200 µM

CN(C)CCn1cnc2ncccc2c1=O
outcome: inactive

O=C1OC2C(O)COC23OC(O)CCC13O (configuration not stated)
EC50: > 200 µM | IC50: > 200 µM

COC(=O)C1=C(C(=O)OC)SC(=C2c3ccsc3-c3sccc32)S1
EC50: > 200 µM | IC50: > 200 µM

NC(CSCCCO)C(=O)O (configuration not stated)
outcome: inactive

O/N=C\C(=Nc1ccc(Cc2ccc(N=C(/C=N\O)NO)cc2)cc1)NO
EC50: > 355 µM | IC50: 39.8 µM

CC(C)(C)c1cc(-c2ccc(-c3cc(C(C)(C)C)c(O)c(C(C)(C)C)c3)cc2)cc(C(C)(C)C)c1O
EC50: > 100 µM | IC50: > 100 µM

COc1cc2c(cc1OC)-c1cc3ccccc3c(=O)n1CCC2
EC50: > 20 µM | IC50: 2.82 µM

Nc1cn(Cc2ccccc2)c2nc(/C=C3/C=CC=CC3=O)c(O)n12
EC50: > 200 µM | IC50: > 200 µM

c1ccc2[nH]c(C3CCCCO3)nc2c1 (configuration not stated)
EC50: > 200 µM | IC50: > 200 µM

C1CCN2CC3CC(CN4CCCCC34)C2C1 (configuration not stated)
EC50: > 759 µM | IC50: > 759 µM

N#CC(C#N)=C1NC(=O)C(c2ccccc2)C(=O)N1 (configuration not stated)
outcome: inactive

CN=C(SC)N(C)c1nc(=[N+](C)C)ss1
outcome: inactive

CN(C)/C=C(\C(=O)c1ccccc1)n1nc(-c2ccccc2)cc1-c1ccccc1
EC50: > 200 µM | IC50: 87.1 µM

Cc1sc2nc(N(C)C)oc(=O)c2c1C
EC50: > 200 µM | IC50: 75.9 µM

CN(C)c1ccc(C=NCC2CCCN3CCCCC23)cc1 (configuration not stated)
EC50: > 100 µM | IC50: > 100 µM

CCOC(=O)C1(C(=O)OCC)OC(C)=NC1(C(=O)OC)C(=O)OC
EC50: > 200 µM | IC50: > 200 µM

Cn1c2ccccc2c2c(-c3ccccc3)cc3c(c21)C(=O)C=CC3=O
EC50: > 100 µM | IC50: 5.5 µM

O=C1C2=C(CC3=C(C2)CS(=O)(=O)C3)C(=O)C2=C1CC1=C(C2)CS(=O)(=O)C1
EC50: > 200 µM | IC50: 6.03 µM

Clc1cccc(NC2=NCCN=C(Nc3cccc(Cl)c3Cl)SS2)c1Cl
EC50: > 200 µM | IC50: 21.4 µM

O=C1c2ccccc2C(=O)c2c(SSc3cccc4c3C(=O)c3ccccc3C4=O)cccc21
EC50: > 200 µM | IC50: > 200 µM

CC1(CC2=C(C(=O)NCCO[Si](C)(C)C(C)(C)C)C3(OCCO3)C2=O)OCCO1
EC50: > 200 µM | IC50: > 200 µM

CNC(=O)C1CCC(=O)N1CN(C(C)=O)c1ccccc1 (configuration not stated)
EC50: > 200 µM | IC50: > 200 µM

CC1(C)CC(=O)C2=C(C1)NC(SSC1=C(C#N)C(c3ccc(F)cc3)C3=C(CC(C)(C)CC3=O)N1)=C(C#N)C2c1ccc(F)cc1 (configuration not stated)
EC50: 19.1 µM | IC50: 39.8 µM

N#CC(=N)c1ncn(CCO)c1NC(=O)C(F)(F)F
EC50: > 200 µM | IC50: > 200 µM

CCC1(Br)C(=O)NC(=O)NC1=O
EC50: 42.7 µM | IC50: 115 µM

CCCCCC/C=[N+](/[O-])CC1OC(n2ccc(=O)[nH]c2=O)C(O[Si](C)(C)C(C)(C)C)C1O[Si](C)(C)C(C)(C)C (configuration not stated)
EC50: > 200 µM | IC50: 6.76 µM

CCSC1=[N+](SCC)CCCS1
EC50: > 708 µM | IC50: 269 µM

CC(=O)OCC1OC(n2cnc3nc(Br)[nH]c(=O)c32)C(OC(C)=O)C1OC(C)=O (configuration not stated)
EC50: 61.7 µM | IC50: > 200 µM

Cc1c(S(=O)c2cc(C(C)(C)C)c(O)c(CN3CCCC3)c2C)cc(C(C)(C)C)c(O)c1CN1CCCC1
EC50: > 200 µM | IC50: 13.5 µM

CC(C)O[C@H]1N(C2CC(N=[N+]=[N-])C(CO)O2)C(=O)NC(=O)[C@]1(C)Cl (some centres not stated)
EC50: > 200 µM | IC50: > 200 µM

C(#CP(c1ccccc1)c1ccccc1)P(C#CP(c1ccccc1)c1ccccc1)c1ccccc1
outcome: inactive

Cc1ccc2c(c1C)C(=O)C1(C2)Cc2ccc3c(c2C1=O)CCC3 (configuration not stated)
EC50: > 100 µM | IC50: > 100 µM

O=C(NC1C=Nc2ccc([N+](=O)[O-])cc2NC1=O)c1cc(Cl)cc([N+](=O)[O-])c1 (configuration not stated)
EC50: > 447 µM | IC50: 155 µM

O=S(=O)(SSS(=O)(=O)c1ccccc1)c1ccccc1
EC50: > 75.9 µM | IC50: > 75.9 µM

CC1(C)O[C@@H](CCl)C[C@H](C#N)O1
EC50: > 200 µM | IC50: > 200 µM

C/C=C/CC1(CC)Oc2cccnc2-n2cccc2C1=O (configuration not stated)
EC50: > 200 µM | IC50: > 100 µM

S=C1Nc2cnc3ccccc3c2SC1c1ccccc1 (configuration not stated)
EC50: > 200 µM | IC50: 56.2 µM

O=C(Nc1cccc([N+](=O)[O-])c1)C(=O)C(C(=O)c1ccccc1-c1ccccc1)C1OC(=O)c2ccccc21 (configuration not stated)
EC50: > 69.2 µM | IC50: 33.1 µM

O=C(O)Cn1ccc(=O)c2c([N+](=O)[O-])cccc21
EC50: > 200 µM | IC50: > 200 µM

O=C(/C=C/c1ccc(O)c(O)c1)OCC(OC(=O)/C=C/c1ccc(O)c(O)c1)C(=O)O (configuration not stated)
EC50: > 200 µM | IC50: 28.2 µM

NC(=O)CCCCC1CCSS1 (configuration not stated)
EC50: > 457 µM | IC50: > 457 µM

Cc1cc(C)cc(N(C2=NCCS2)C2=NCCS2)c1
EC50: > 200 µM | IC50: > 200 µM

CN(/N=C/c1ccc(C(=O)O)cc1)C1=NCCCCN1
EC50: > 200 µM | IC50: > 200 µM

Cc1ccc2c(c1)S(=O)c1cc(C)ccc1S2
outcome: inactive | IC50: 14.5 µM

COC(=O)Nc1cn2ccsc2n1
outcome: inactive

N#CC1(OC2CCCCO2)Cc2ccccc2C1 (configuration not stated)
EC50: > 200 µM | IC50: > 200 µM

CCc1ccccc1NC(=O)/C(CC(=O)c1c(C)n([O-])c2ccccc2[n+]1=O)=N\NS(=O)(=O)c1ccc(C)cc1
EC50: > 23.4 µM | IC50: 13.5 µM

CC(C)=Nn1cnc2c1NC(C)(C)N=C2C(N)=O
EC50: > 200 µM | IC50: > 200 µM

CCCCCC/C(CC(=O)CCC(=O)NCCc1ccccc1)=N\NC(=O)c1ccc2ccccc2c1O
EC50: > 251 µM | IC50: 14.5 µM

CC(NC(=O)C(N)CSSCC(N)C(=O)NC(C)C(=O)O)C(=O)O (stereo not drawn) (I: H-Cys-Ala-OH / II: H-Cys-Ala-OH; disulfide I:1-II:1; configuration not given here)
EC50: > 178 µM | IC50: > 178 µM

Cc1ccc(-c2c(C#N)c(-c3ccccc3)n(NS(=O)(=O)c3ccc(C)cc3)c(=O)c2C#N)cc1
EC50: > 200 µM | IC50: 67.6 µM

COc1c(C)cc(Cc2cc(C)c(OC)c(Br)c2)cc1Br
EC50: > 200 µM | IC50: 91.2 µM

S=C(/N=N/c1[nH]c2ccccc2c1NNC(=S)NC12CC3CC(CC(C3)C1)C2)NC12CC3CC(CC(C3)C1)C2
outcome: inactive

C[S+](C)c1ccccc1NC(C)(C)C
EC50: > 776 µM | IC50: 490 µM

COC(=O)C(=O)C(C(=O)C(=O)Nc1ccccc1OC)c1nc2ccc([N+](=O)[O-])cc2[nH]c1=O (configuration not stated)
EC50: > 537 µM | IC50: 95.5 µM

CC(C)(C)C1(C#N)C(=O)N(c2ccc(N3C(=O)C(C#N)(C(C)(C)C)C34c3ccccc3-c3ccccc34)cc2)C12c1ccccc1-c1ccccc12 (configuration not stated)
EC50: > 372 µM | IC50: 107 µM

O=C1[C@@H]2C(c3ccccc3Br)=NO[C@@H]2C(=O)N1c1ccc(Cc2ccc(N3C(=O)[C@H]4C(c5ccccc5Br)=NO[C@H]4C3=O)cc2)cc1
EC50: > 9.55 µM | IC50: > 9.55 µM

CN(C)c1ccc(C=Cc2ccc([N+](=O)[O-])cc2)cc1.[C-]#[O+].[C-]#[O+].[C-]#[O+].[Cr]
EC50: > 20 µM | IC50: 2.4 µM

COC(=O)/C=C1\CC(C)C2=C(N1)SCC2=O (configuration not stated)
EC50: > 355 µM | IC50: 138 µM

COC(=O)C1=COC(C)C2Cn3ccc4c5ccccc5nc-4c3CC12 (configuration not stated)
EC50: > 129 µM | IC50: 75.9 µM

COc1ccc(C=NC23CC4CC(CC(C4)C2)C3)cc1
EC50: > 95.5 µM | IC50: > 95.5 µM

O=C(NCCn1ccnn1)Nc1ccccc1
EC50: > 200 µM | IC50: > 200 µM

OCCSCCCSCCO
EC50: > 95.5 µM | IC50: 72.4 µM

O=C1OC(c2cccc(C(F)(F)F)c2)(c2cccc(C(F)(F)F)c2)c2ccc3ccccc3c21
outcome: inactive
